Assays:
[1] = tested on: Cisplatin-sensitive (OV2008) human ovarian epithelial cells; test: Apoptosis (nuclear staining, DNA ladders, TUNEL) in cisplatin-sensitive ovarian cancer cells; format: cell-based; conditions: for incidence of apoptosis: cisplatin 0-30 μM or taxol 0-1.0 μM, up to 48 hours
Protocol: (§1) Cisplatin-sensitive (OV2008) and -resistant (C13) human ovarian epithelial cells were cultured in a chemically-defined medium at 37° C. for up to 48 hours in the presence or absence of TGFβ (20 ng/ml), taxol (0–1.0 μM) or cisplatin (0–30 μM). At the end of the culture period, cells were either fixed for immunocytochemistry and TUNEL analyses, or snap frozen for subsequent extraction for IAP mRNA and proteins analyses.
(§2) Human ovarian epithelial cancer cells were fixed (4% formalin in PBS; 10 min. RT), washed in PBS, resuspended in Hoescht 33248 stain (0.1 μg/ml PBS, 10 min) washed again and spotted onto slides for microscopy. Nuclear staining was observed and photographed using a Zeiss fluorescent microscope equipped with an FITC filter. Apoptotic cells were identified by typical nuclear morphology, and counted using randomly selected fields and numbered photographic slides to avoid bias during counting.
(§3) Cellular DNA was extracted using the Qiagen Blood Amt kit. DNA was quantified by ethidium bromide fluorescence. DNA (0.5 μg) was then end labelled by incubating (20 min, RT) with Klenow enzyme (2 U in 10 mM Tris+5 mM MgCl2) and 0.1 μCi [α32P]dCTP. Unincorporated nucleotides were removed with the Qiagen nucleotide removal kit and samples were resolved by Tris-acetate-EDTA agarose (1.8%) gel electrophoresis. The gel was then dried (2 hr, no heat) and exposed to a Bio-Rad phosphoimager screen to densitometrically quantify low molecular weight DNA (<15 kBp) and subsequently to x-ray film at −80° C.
To identify cell death using the in situ cell death detection kit (Boehringer-Mannheim), slides prepared for histology were treated (20 min. 37° C.) with terminal tranferase in the presence of FITC-conjugated dUTP.

[2] = tested on: HIAP-2 protein in C13 cells; test: Western blot for HIAP-2 protein in C13 cells; format: cell-based, human
Protocol: as §1
(§4) Protein extracts were prepared from human surface epithelial cancer cells sonicated (8 s/cycle, 3 cycles) on ice in sucrose buffer (0.25 M sucrose, 0.025 M NaCl, 1 mM EGTA and 15 mM Tris-HCl pH 6.8, supplemented with 1 mM PMSF, 2 μg/ml of leupeptin and 5 μg/ml of aprotinin. The sonicates were centrifuged at 13,000×g for 10 min, the supernatants were collected and stored at −20° C. until electrophoretic analyses were performed. Protein concentration was determined by Bio-Rad Protein Assay. Proteins (10–30 μg) were resolved by one-dimensional SDS-PAGE, and electrophoretically transferred to nitrocellulose membrane. Membranes were blocked with 5% non-fat milk, and subsequently incubated with rabbit polyclonal antibody for IAP anti-human Hiap-2ΔE(960529; 1:1000 dilution), anti-human NAIP E1.0 (951015; 1:1000 dilution) or anti-human Xiap (1:1000 dilution) diluted in TBST (10 mM Tris-buffered saline, 0.1% Tween-20, pH 7.5) containing 5% milk. […]

[3] = tested on: XIAP protein in OV2008 cells; test: Western blot for XIAP protein in OV2008 cells; format: cell-based, human
Protocol: as §1, §4

[4] = tested on: HIAP-2 mRNA in OV2008 cells; test: Northern blot for HIAP-2 mRNA in OV2008 cells; format: cell-based, human
Protocol: as §1
(§5) Total RNA from ovarian surface epithelial cancer cells by using RNeasy Kit (Qiagen). The RNA samples (10–15 μg) were quantified spectrophotometrically and size-fractioned by electrophoresis on formaldehyde-agarose gels (1.1%) containing 1 μg/ml ethidium bromide to confirm even loading of RNA samples and adequate separation of 28S and 18S ribosomal bands. The RNAs bands were blotted onto a nylon membrane and cross-linked by UV light. Membranes were prehybridized in 50% formamide, saline sodium citrate (SSC; 750 mM NaCl, 75 mM Na citrate), 1×Denhardt's solution, 1% SDS, 4 mM EDTA and 100 μg/ml sheared salmon sperm DNA for 4 h at 42° C. Hybridization was performed overnight at 42° C. with 20 million cpm of ^32P-labelled IAP cDNA probes (rat Naip, rat Xiap or human Hiap-2) added to the prehybridization buffer. […] Data were normalized by the respective 28S and expressed as a percentage of the control (defined as 100%).

HIAP-2 mRNA in C13 cells = test: Northern blot for HIAP-2 mRNA in C13 cells; format: cell-based, human
Protocol: as §1, §5

[5] = tested on: XIAP protein in C13 cells; test: Western blot for XIAP protein in C13 cells; format: cell-based, human
Protocol: as §1, §4

[6] = tested on: HIAP-2 protein in OV2008 cells; test: Western blot for HIAP-2 protein in OV2008 cells; format: cell-based, human
Protocol: as §1, §4

HeLa cells = test: Apoptosis and 26 kDa xiap cleavage product (Western blot) in HeLa cells; format: cell-based, human; conditions: 18 hours; for 26 kDa xiap cleavage product: HeLa cells, cycloheximide 20 μg/ml, TNFα 1,000 U/ml, anti-Fas antibody 1 μg/ml; for apoptosis of HeLa cells: cycloheximide 20 μg/ml or TNFα 1,000 U/ml alone
Protocol: A 26 kDa xiap-reactive band was also observed under the following experimental conditions. Jurkat cells (a transformed human T cell line) were induced to undergo apoptosis by exposure to an anti-Fas antibody (1 μg/ml). Identical cultures of Jurkat cells were exposed either to: (1) anti-Fas antibody and cycloheximide (20 μg/ml), (2) tumor necrosis factor alpha (TNF-α, at 1,000 U/ml), or (3) TNF-α and cycloheximide (20 μg/ml). All cells were harvested 6 hours after treatment began. In addition, as a negative control, anti-Fas antibody was added to an extract after the cells were harvested. The cells were harvested in SDS sample buffer, electrophoresed on a 12.5% SDS polyacrylamide gel, and electroblotted onto PVDF membranes using standard methods. The membranes were immunostained with a rabbit polyclonal anti-xiap antibody at 1:1000 for 1 hour at room temperature. Following four 15 minute washes, a goat anti-rabbit antibody conjugated to horse-radish peroxidase was applied at room temperature for 1 hour. Unbound secondary antibody was washed away, and chemiluminescent detection of xiap protein was performed. […] In addition, a novel, approximately 26 kDa xiap-reactive band was also observed in apoptotic cell extracts, but not in the control, untreated cell extracts (FIG. 13).
Cleavage of xiap occurs in a variety of cell types, including other cancer cell lines such as HeLa. […] HeLa cells were treated with either: (1) cyclohexamide (20 μg/ml), (2) anti-Fas antibody (1 μg/ml), (3) anti-Fas antibody (1 μg/ml) and cyclohexamide (20 μg/ml), (4) TNFα (1,000 U/ml), or (5) TNFα (1,000 U/ml) and cyclohexamide (20 μg/ml). All cells were harvested 18 hours after treatment began. As above, anti-Fas antibody was added to an extract after the cells were harvested. HeLa cells were harvested, and the Western blot was probed under the same conditions as used to visualize xiap-reactive bands from Jurkat cell samples. A 26 kDa xiap band was again seen in the apoptotic cell preparations (FIG. 14). Furthermore, the degree of xiap cleavage correlated positively with cellular exposure to apoptotic triggers.
The time course over which the 26 kDa cleavage product accumulates was examined by treating HeLa and Jurkat cells with anti-Fas antibody (1 μg/ml) and harvesting them either immediately, or 1, 2, 3, 5, 10, or 22 hours after treatment. Protein extracts were prepared and Western blot analysis was performed as described above.

[7] = tested on: Cisplatin-resistant (C13) human ovarian epithelial cells; test: Apoptosis (nuclear staining, DNA ladders, TUNEL) in cisplatin-resistant ovarian cancer cells; format: cell-based; conditions: TGFβ 20 ng/ml
Protocol: as §1, §2
as §3, with “Unincorporated nucleotides were removed with the Qiagen nucleotide removal kit and samples were resolved by Tris-acetate-EDTA agarose (1.8%) gel electrophoresis.” left out, “C. […]” for “C.”

## N.N.[Cl][Pt][Cl] [Cisplatin, cisplatin]
[1]
  incidence of apoptosis: concentration-dependent increase

## CC(=O)O[C@H]1C(=O)[C@@]2(C)[C@H]([C@H](OC(=O)c3ccccc3)[C@]3(O)C[C@H](OC(=O)[C@H](O)[C@@H](NC(=O)c4ccccc4)c4ccccc4)C(C)=C1C3(C)C)[C@]1(OC(C)=O)CO[C@@H]1C[C@@H]2O [Taxol]
[2]; Taxol
  content of approx. 45 kDa immunoreactive fragment of HIAP-2: increased
[2]; Taxol 0.04-1.0 μM, concentration-dependent, less pronounced than in sensitive cells
  HIAP-2 protein level: decreased
[3]; OV2008 cells, Taxol 0.04-1.0 μM, concentration-dependent, more pronounced than in resistant cells
  XIAP protein level: decreased
[1]
  incidence of apoptosis: induced apoptosis
[4]; cisplatin-sensitive cells, Taxol 0.2 μM
  suppression of HIAP-2 mRNA abundance: approx. 80%
HIAP-2 mRNA in C13 cells; cisplatin-resistant cells, Taxol 0.2 μM
  suppression of HIAP-2 mRNA abundance: ineffective
[5]; C13 cells, Taxol 0.04-1.0 μM, concentration-dependent, less pronounced than in sensitive cells
  XIAP protein level: decreased
[6]; Taxol
  content of approx. 45 kDa immunoreactive fragment of HIAP-2: decreased
[6]; Taxol 0.04-1.0 μM, concentration-dependent, more pronounced than in resistant cells
  HIAP-2 protein level: decreased

## C[C@@H]1C[C@@H]([C@H](O)CC2CC(=O)NC(=O)C2)C(=O)[C@@H](C)C1 [cycloheximide]
HeLa cells
  26 kDa xiap cleavage product: little cleavage product
  apoptosis of HeLa cells: only minor apoptosis

## TGFβ: TGFβ (20 ng/ml) added to ovarian cancer cell cultures
[7]
  induction of apoptosis: not in C13
[3]; cisplatin-sensitive cells, TGFβ 20 ng/ml
  influence on Xiap protein content: markedly suppressed
[1]; TGFβ 20 ng/ml
  induction of apoptosis: induced apoptosis
[4]; OV2008 cells, TGFβ 20 ng/ml
  HIAP-2 mRNA: decreased
HIAP-2 mRNA in C13 cells; C13 cells, TGFβ 20 ng/ml
  HIAP-2 mRNA: not C13
[5]; cisplatin-resistant cells, TGFβ 20 ng/ml
  influence on Xiap protein content: only marginal

## TNFα
HeLa cells
  26 kDa xiap cleavage product: little cleavage product
  apoptosis of HeLa cells: only minor apoptosis

Reference: patent US7087584B2, “Detection and modulation of IAPs and NAIP for the diagnosis and treatment of proliferative disease” (Aegera Therapeutics Inc., priority 1997, dated 2006)
